Assays:
Experiment in all cases: agar diffusion, inhibition halo
Assay type in all cases: cell-based
[1] = tested on: Aspergillus niger, CECT 2700
Method: (§1) In order to evaluate the antimicrobial activity the agar diffusion technique with cellulose discs of 6 mm in diameter impregnated with the different active ingredient testing doses was used.
(§2) Antifungal capacity was assessed against suspensions of […], harvested from pure cultures of the selected molds and against suspensions of 10^7 cells/ml for the case of yeasts. The culture medium used was the 2% Sabouraud-glucose medium (Merck).
(§3) After incubating the culture dishes inoculated with the different organisms at the corresponding temperatures, the microbial inhibition halos that appeared were measured, and said measurement includes the 6 mm diameter of the cellulose discs.

[2] = tested on: Aspergillus terreus, isolated from the environment of the cheese maturation chamber
Method: as §1, §2, §3

[3] = tested on: Candida krusei, isolated from cheese
Method: as §1, §2, §3

[4] = tested on: Geotrichum candidum CECT 1902
Method: as §1, §2, §3

[5] = tested on: Penicillium italicum CECT 2294; settings: for zone of inhibition at 125 ppm / zone of inhibition at 250 ppm / zone of inhibition at 500 ppm / zone of inhibition at 1000 ppm: CECT2294, read-out: inhibition halo diameter
Method: as §1, §2, §3

[6] = tested on: Penicillium sp, isolated from cheese
Method: as §1, §2, §3

[7] = tested on: Bacillus cereus, CECT 1178
Method: as §1
(§4) Antibacterial capacity was assessed against suspensions of 10^6 cells/ml, prepared from pure young cultures of each one of the strains to be tested. The culture medium used was Müller-Hinton medium (Merck).
as §3

[8] = tested on: Bacillus subtilis, isolated from paprika
Method: as §1, §4, §3

[9] = tested on: Escherichia coli, CECT 515
Method: as §1, §4, §3

[10] = tested on: Listeria monocytogenes, ATCC 15313
Method: as §1, §4, §3

[11] = tested on: Rhizopus stolonifer CECT 2344
Method: as §1, §2, §3

[12] = tested on: Trichoderma aureoviride CECT 20102
Method: as §1, §2, §3

[13] = tested on: Mucor plumbeus, isolated from cheese; settings: 1000 ppm
Method: as §1, §2, §3

[14] = tested on: Salmonella typhimurium, ATCC 13311; settings: 1000 ppm
Method: as §1, §4, §3

[15] = tested on: Staphylococcus aureus, isolated from hamburgers; settings: 1000 ppm
Method: as §1, §4, §3

[16] = 1000 ppm (active ingredient, dose in ppm)
[17] = 2000 ppm (active ingredient, dose in ppm)
[18] = 4000 ppm (active ingredient, dose in ppm)
[19] = 6000 ppm (active ingredient, dose in ppm)
[20] = Penicillium italicum, CECT2294, read-out: inhibition halo diameter

Q: C=CCSSC=CC[S+]([O-])CC=C (mixture of isomers) [Ajoene, (E)-(Z)-ajoene] was tested. Which inhibition halo diameter ([1]; 125 ppm) did it give?
A: 11 mm

Q: What about the inhibition halo diameter ([1]; 250 ppm) of the same compound?
A: 13 mm

Q: What about the inhibition halo diameter ([1]; 500 ppm) of the same compound?
A: 24 mm

Q: What about the inhibition halo diameter ([1]; 1000 ppm) of the same compound?
A: 27 mm

Q: And the inhibition halo diameter ([2]; 125 ppm)?
A: 18 mm

Q: What about the inhibition halo diameter ([2]; 250 ppm) of the same compound?
A: 21 mm

Q: What about the inhibition halo diameter ([2]; 500 ppm) of the same compound?
A: 32 mm

Q: What about the inhibition halo diameter ([2]; 1000 ppm) of the same compound?
A: 40 mm

Q: And the inhibition halo diameter ([3]; 125 ppm)?
A: 26 mm

Q: And the inhibition halo diameter ([3]; 250 ppm)?
A: 32 mm

Q: And the inhibition halo diameter ([3]; 500 ppm)?
A: 38 mm

Q: What about the inhibition halo diameter ([3]; 1000 ppm) of the same compound?
A: 42 mm

Q: What about the inhibition halo diameter ([4]; 125 ppm) of the same compound?
A: 14 mm

Q: What about the inhibition halo diameter ([4]; 250 ppm) of the same compound?
A: 20 mm

Q: What about the inhibition halo diameter ([4]; 500 ppm) of the same compound?
A: 26 mm

Q: And the inhibition halo diameter ([4]; 1000 ppm)?
A: 34 mm

Q: What about the zone of inhibition at 125 ppm ([5]; Penicillium italicum) of the same compound?
A: 18 mm

Q: And the zone of inhibition at 250 ppm ([5]; Penicillium italicum)?
A: 24 mm

Q: What about the zone of inhibition at 500 ppm ([5]; Penicillium italicum) of the same compound?
A: 44 mm

Q: And the zone of inhibition at 1000 ppm ([5]; Penicillium italicum)?
A: 50 mm

Q: And the inhibition halo diameter ([6]; 125 ppm)?
A: 12 mm

Q: And the inhibition halo diameter ([6]; 250 ppm)?
A: 27 mm

Q: And the inhibition halo diameter ([6]; 500 ppm)?
A: 40 mm

Q: What about the inhibition halo diameter ([6]; 1000 ppm) of the same compound?
A: 40 mm

Q: What about the inhibition halo diameter ([7]; 125 ppm) of the same compound?
A: 18 mm

Q: And the inhibition halo diameter ([7]; 250 ppm)?
A: 24 mm

Q: What about the inhibition halo diameter ([7]; 500 ppm) of the same compound?
A: 30 mm

Q: And the inhibition halo diameter ([7]; 1000 ppm)?
A: 36 mm

Q: And the inhibition halo diameter ([8]; 125 ppm)?
A: 36 mm

Q: And the inhibition halo diameter ([8]; 250 ppm)?
A: 40 mm

Q: And the inhibition halo diameter ([8]; 500 ppm)?
A: 54 mm

Q: What about the inhibition halo diameter ([8]; 1000 ppm) of the same compound?
A: 62 mm

Q: What about the inhibition halo diameter ([9]; 125 ppm) of the same compound?
A: 7 mm

Q: And the inhibition halo diameter ([9]; 250 ppm)?
A: 9 mm

Q: And the inhibition halo diameter ([9]; 500 ppm)?
A: 11 mm

Q: What about the inhibition halo diameter ([9]; 1000 ppm) of the same compound?
A: 13 mm

Q: And the inhibition halo diameter ([10]; 125 ppm)?
A: 16 mm

Q: What about the inhibition halo diameter ([10]; 250 ppm) of the same compound?
A: 18 mm

Q: And the inhibition halo diameter ([10]; 500 ppm)?
A: 20 mm

Q: What about the inhibition halo diameter ([10]; 1000 ppm) of the same compound?
A: 30 mm

Q: What does the source list for C=CC1SC=CCS1 (centres unmarked) [2-vinyl-4H-1,3-dithiin]?
A: inhibition halo diameter ([1]; 125 ppm): 7 mm; inhibition halo diameter ([1]; 250 ppm): 7 mm; inhibition halo diameter ([1]; 500 ppm): 10 mm; inhibition halo diameter ([1]; 1000 ppm): 15 mm; inhibition halo diameter ([2]; 125 ppm): 0 mm; inhibition halo diameter ([2]; 250 ppm): 0 mm; inhibition halo diameter ([2]; 500 ppm): 6 mm; inhibition halo diameter ([2]; 1000 ppm): 7 mm; inhibition halo diameter ([3]; 125 ppm): 7 mm; inhibition halo diameter ([3]; 250 ppm): 10 mm; inhibition halo diameter ([3]; 500 ppm): 10 mm; inhibition halo diameter ([3]; 1000 ppm): 12 mm; inhibition halo diameter ([4]; 125 ppm): 7 mm; inhibition halo diameter ([4]; 250 ppm): 7 mm; inhibition halo diameter ([4]; 500 ppm): 10 mm; inhibition halo diameter ([4]; 1000 ppm): 15 mm; zone of inhibition at 125 ppm ([5]; Penicillium italicum): 0 mm; zone of inhibition at 250 ppm ([5]; Penicillium italicum): 0 mm; zone of inhibition at 500 ppm ([5]; Penicillium italicum): 8 mm; zone of inhibition at 1000 ppm ([5]; Penicillium italicum): 10 mm; inhibition halo diameter ([6]; 125 ppm): 0 mm; inhibition halo diameter ([6]; 250 ppm): 8 mm; inhibition halo diameter ([6]; 500 ppm): 10 mm; inhibition halo diameter ([6]; 1000 ppm): 12 mm; inhibition halo diameter ([7]; 125 ppm): 7 mm; inhibition halo diameter ([7]; 250 ppm): 9 mm; inhibition halo diameter ([7]; 500 ppm): 10 mm; inhibition halo diameter ([7]; 1000 ppm): 12 mm; inhibition halo diameter ([8]; 125 ppm): 7 mm; inhibition halo diameter ([8]; 250 ppm): 10 mm; inhibition halo diameter ([8]; 500 ppm): 13 mm; inhibition halo diameter ([8]; 1000 ppm): 15 mm; inhibition halo diameter ([9]; 125 ppm): 0 mm; inhibition halo diameter ([9]; 250 ppm): 0 mm; inhibition halo diameter ([9]; 500 ppm): 0 mm; inhibition halo diameter ([9]; 1000 ppm): 0 mm; inhibition halo diameter ([10]; 125 ppm): 0 mm; inhibition halo diameter ([10]; 250 ppm): 7 mm; inhibition halo diameter ([10]; 500 ppm): 8 mm; inhibition halo diameter ([10]; 1000 ppm): 10 mm

Q: Which inhibition halo diameter ([1]; 125 ppm) does the source give for C=CC1CC=CSS1 (centres unmarked) [3-vinyl-4H-1,2-dithiin] here?
A: 0 mm

Q: And the inhibition halo diameter ([1]; 250 ppm)?
A: 7 mm

Q: What about the inhibition halo diameter ([1]; 500 ppm) of the same compound?
A: 10 mm

Q: What about the inhibition halo diameter ([1]; 1000 ppm) of the same compound?
A: 14 mm

Q: And the inhibition halo diameter ([2]; 125 ppm)?
A: 0 mm

Q: What about the inhibition halo diameter ([2]; 250 ppm) of the same compound?
A: 0 mm

Q: What about the inhibition halo diameter ([2]; 500 ppm) of the same compound?
A: 0 mm

Q: What about the inhibition halo diameter ([2]; 1000 ppm) of the same compound?
A: 0 mm

Q: And the inhibition halo diameter ([3]; 125 ppm)?
A: 0 mm

Q: What about the inhibition halo diameter ([3]; 250 ppm) of the same compound?
A: 7 mm

Q: And the inhibition halo diameter ([3]; 500 ppm)?
A: 8 mm

Q: And the inhibition halo diameter ([3]; 1000 ppm)?
A: 10 mm

Q: What about the inhibition halo diameter ([4]; 125 ppm) of the same compound?
A: 0 mm

Q: And the inhibition halo diameter ([4]; 250 ppm)?
A: 0 mm

Q: And the inhibition halo diameter ([4]; 500 ppm)?
A: 0 mm

Q: What about the inhibition halo diameter ([4]; 1000 ppm) of the same compound?
A: 0 mm

Q: And the zone of inhibition at 125 ppm ([5]; Penicillium italicum)?
A: 0 mm

Q: What about the zone of inhibition at 250 ppm ([5]; Penicillium italicum) of the same compound?
A: 0 mm

Q: What about the zone of inhibition at 500 ppm ([5]; Penicillium italicum) of the same compound?
A: 0 mm

Q: What about the zone of inhibition at 1000 ppm ([5]; Penicillium italicum) of the same compound?
A: 0 mm

Q: What about the inhibition halo diameter ([6]; 125 ppm) of the same compound?
A: 0 mm

Q: What about the inhibition halo diameter ([6]; 250 ppm) of the same compound?
A: 6 mm

Q: What about the inhibition halo diameter ([6]; 500 ppm) of the same compound?
A: 7 mm

Q: What about the inhibition halo diameter ([6]; 1000 ppm) of the same compound?
A: 10 mm

Q: What about the inhibition halo diameter ([7]; 125 ppm) of the same compound?
A: 7 mm

Q: And the inhibition halo diameter ([7]; 250 ppm)?
A: 8 mm

Q: What about the inhibition halo diameter ([7]; 500 ppm) of the same compound?
A: 8 mm

Q: What about the inhibition halo diameter ([7]; 1000 ppm) of the same compound?
A: 10 mm

Q: What about the inhibition halo diameter ([8]; 125 ppm) of the same compound?
A: 8 mm

Q: And the inhibition halo diameter ([8]; 250 ppm)?
A: 9 mm

Q: What about the inhibition halo diameter ([8]; 500 ppm) of the same compound?
A: 10 mm

Q: What about the inhibition halo diameter ([8]; 1000 ppm) of the same compound?
A: 12 mm

Q: What about the inhibition halo diameter ([9]; 125 ppm) of the same compound?
A: 0 mm

Q: What about the inhibition halo diameter ([9]; 250 ppm) of the same compound?
A: 0 mm

Q: What about the inhibition halo diameter ([9]; 500 ppm) of the same compound?
A: 0 mm

Q: And the inhibition halo diameter ([9]; 1000 ppm)?
A: 0 mm

Q: And the inhibition halo diameter ([10]; 125 ppm)?
A: 0 mm

Q: And the inhibition halo diameter ([10]; 250 ppm)?
A: 0 mm

Q: And the inhibition halo diameter ([10]; 500 ppm)?
A: 0 mm

Q: What about the inhibition halo diameter ([10]; 1000 ppm) of the same compound?
A: 0 mm

Q: Which results are given for [Na+].[O-]c1ccccc1-c1ccccc1 [30% Na o-phenylphenate, Na o-phenylphenate]?
A: inhibition halo diameter [4, 16]: 7 mm; inhibition halo diameter [4, 17]: 30 mm; inhibition halo diameter [4, 18]: 35 mm; inhibition halo diameter [4, 19]: 40 mm; inhibition halo diameter [5, 16]: 20 mm; inhibition halo diameter [5, 17]: 30 mm; inhibition halo diameter [5, 18]: 33 mm; inhibition halo diameter [5, 19]: 53 mm; inhibition halo diameter [11, 16]: 0 mm; inhibition halo diameter [11, 17]: 0 mm; inhibition halo diameter [11, 18]: 0 mm; inhibition halo diameter [11, 19]: 0 mm; inhibition halo diameter [12, 16]: 0 mm; inhibition halo diameter [12, 17]: 10 mm; inhibition halo diameter [12, 18]: 20 mm; inhibition halo diameter [12, 19]: 35 mm

Q: Which results are given for CCCCS[S+]([O-])CCCC (centres unmarked) [BTS, n-butyl n-butyl thiosulfinate]?
A: inhibition halo diameter [13]: 17 mm; zone of inhibition at 1000 ppm ([5]; Penicillium italicum): 67 mm; inhibition halo diameter ([8]; 1000 ppm): 60 mm; inhibition halo diameter [14]: 20 mm; inhibition halo diameter [15]: 45 mm

Q: For c1ccc(-c2ccccc2)cc1 [Biphenyl], which inhibition halo diameter [4, 18] is on record?
A: 0 mm

Q: And the inhibition halo diameter [4, 19]?
A: 0 mm

Q: What about the zone of inhibition at 4000 ppm [5, 20] of the same compound?
A: 7 mm

Q: And the zone of inhibition at 6000 ppm [5, 20]?
A: 8 mm

Q: And the inhibition halo diameter [11, 18]?
A: 0 mm

Q: What about the inhibition halo diameter [11, 19] of the same compound?
A: 0 mm

Q: What about the inhibition halo diameter [12, 18] of the same compound?
A: 0 mm

Q: And the inhibition halo diameter [12, 19]?
A: 0 mm
